Measured values: patent US7008954B1, “Th2 differentiation inhibitors” (Shionogi & Co., Ltd., priority 1999, dated 2006)

How the values were obtained:
[1] = system: differentiation from Th0 cells to Th1 cells; assay: Effect on induction of differentiation from Th0 cells to Th1 cells (mice immunized with non-viable Mycobacterium tuberculosis, popliteal lymph node, intracellular cytokine FACS); assay type: in vivo, C57BL/6 mice; settings: for % Th1 / % Th2: C57BL/6N mice immunized with non-viable Mycobacterium tuberculosis, popliteal lymph node 6 days after immunization, n = 3; for effect on the increase in the % Th1: CD4 positive T cells, popliteal lymph node, C57BL/6 mice immunized with non-viable Mycobacterium tuberculosis
Protocol: In an experiment to induce the differentiation from Th0 cells to Th1 cells, 8 week-old female mice of C57BL/6NCrj purchased from Charles River Japan, Inc. were used.
On the other hand, in an experiment to induce the differentiation from Th0 cells to Th1 cells, a non-viable Mycobacterium tuberculosis H37RA (DIFCO) was suspended in physiological saline, and 125 μg/50 μl was used for immunization as described above. In the group treated with physiological saline, the preparations from 4 animals were combined and subjected to the experiment.
(§1) Cells prepared from popliteal lymph nodes of these mice were suspended at 1−2×10^6 cells/ml (1–2 ml) in an RPMI 1640 medium (containing 10% fetal bovine serum—FBS and 50 μM 2-mercaptoethanol) and supplemented with PMA (Phorbol 12-Myristate 13-Acetate) at the final concentration of 50 ng/ml and 250 ng/ml A23187 (Ca ionophore) and then incubated at 37° C. in the presence of 5% CO2. After incubating for 4 hours, Brefeldin A was added at the final concentration of 10 μg/ml and the mixture was incubated further for 2 hours. The cells were recovered and washed twice with a staining buffer (PBS containing 1% FBS and 0.1% sodium azide) and suspended in 100 μl of the staining buffer containing 5 μg/ml of Fc Block (rat anti-mouse CD 16/CD32 purified monoclonal antibody, Pharmingen) and incubated on ice for 5 minutes to block the non-specific adsorption of the labeled antibody, and then combined with an equal volume of a Cy-Chrome-labelled rat anti-mouse CD4 monoclonal antibody (Pharmingen) which had been 200-fold diluted with the staining buffer and incubated on ice for 30 minutes. After washing three times with the staining buffer, the cells were suspended in PBS and combined with an equal volume of a fixation solution (4% p-formaldehyde) and incubated at 4° C. overnight, whereby effecting the fixation. The fixed cells thus obtained were washed twice with the staining buffer and suspended in a permeabilazation buffer (PBS containing 1% FBS, 0.5% saponin and 0.1% sodium azide) and incubated on ice for 10 minutes, and then each cell sample was recovered as being divided into two equal portions. Each portion was suspended in 100 μl of the permeabilazation buffer containing 5 μg/ml Fc Block and incubated on ice for 5 minutes to block the non-specific adsorption of the labeled antibody into the cells. One portion was combined with each 100 μl of an FITC-labelled rat anti-mouse IFNγ monoclonal antibody (Pharmingen) and a PE-labeled rat anti-mouse IL-4 monoclonal antibody (Pharmingen) each had been 50-fold diluted with the permeabilazation buffer and incubated on ice for 30 minutes. The other portion, serving as a control representing the non-specific adsorption of the labeled antibody, was combined with each 100 μl of each control antibody at the same concentration, i.e., an FITC-labelled rat IgG1κ purified antibody (Pharmingen) and a PE-labeled rat IgG1κ purified antibody (Pharmingen) to effect the similar staining. After washing three times with the cell membrane permeation buffer and twice with the staining buffer, the cells were suspended in 500 μl of the staining buffer and transferred through a nylon mesh into a FACS analysis tube.
The significant difference was analyzed by Dunnett multiple comparison test and Student t test.

[2] = system: differentiation from Th0 cells to Th2 cells; assay: Inhibitory effect on induction of differentiation from Th0 cells to Th2 cells (DNP-As immunized mice, popliteal lymph node, intracellular cytokine FACS); assay type: in vivo, BALB/c mice; settings: for increase in the % Th2 / increase in the Th2/Th1 ratio: BALB/c mice immunized with DNP-As; for % Th1 / % Th2 / Th2/Th1: BALB/c mice immunized with DNP-As/Alum, popliteal lymph node 6 days after immunization, n = 3
Protocol: Experiment 1 Inhibitory Effect on Induction of Differentiation from Th0 Cells to Th2 Cells
In an experiment to induce the differentiation from Th0 cells to Th2 cells, 9 to 11 week-old female mice of BALB/cCrSlc purchased from Japan SLC, Inc. or of BALB/cAnNCrj purchased from Charles River Japan, Inc. were used.
In an experiment to induce the differentiation from Th0 cells to Th2 cells, a DNP-As (dinitrophenylated Ascaris protein (porcine ascarid extract protein)) was used as an antigen, 10 μg of which and 250 μg of Alum (aluminum hydroxide adjuvant) in physiological saline in the final volume of 50 μl was injected into the soles of the both hind legs of each mouse, whereby effecting immunization. In a negative control group, each animal was treated similarly by an injection of 50 μl of physiological saline. 6 Days after injection, two popliteal lymph nodes were removed from right and left knees, and passed through a metal mesh (200 mesh size) in Hanks' balanced salt solution (HBSS) to prepare a cell suspension. In the group treated with physiological saline, preparations from two animals were combined and subjected to the experiment because of a small cell number. A compound according to the invention was suspended in 0.5% methylcellulose (MC) and 0.1 ml per 20 g mouse was given orally every day over a period from the day of immunization through the 5th day. The immunized vehicle control group and the negative control group were treated with the same volume of 0.5% MC.
as §1, with “After washing three times with the cell membrane permeation buffer and twice with the staining buffer, the cells were suspended in 500 μl of the staining buffer and transferred through a nylon mesh into a FACS analysis tube.” left out

[3] = 2.5 mg/kg orally daily for 6 days
[4] = 10 mg/kg orally daily for 6 days
[5] = 40 mg/kg orally daily for 6 days
[6] = 40 mg/kg orally for consecutive 6 days after immunization, CD4 positive T cells, popliteal lymph node
[7] = 10 mg/kg orally for consecutive 6 days after immunization

SMILES | % Th1 ([1]; 40 mg/kg) [%] | % Th2 ([1]; 40 mg/kg) [%] | effect on the increase in the % Th1 [1] | increase in the % Th2 ([2]; 10 mg/kg or higher) | increase in the Th2/Th1 ratio ([2]; 10 mg/kg or higher) | % Th1 [2, 3] [%] | % Th2 [2, 3] [%] | Th2/Th1 [2, 3] | % Th1 [2, 4] [%] | % Th2 [2, 4] [%] | Th2/Th1 [2, 4] | % Th1 [2, 5] [%] | % Th2 [2, 5] [%] | Th2/Th1 [2, 5] | increase in the % Th2 [2, 6] | increase in the Th2/Th1 ratio [2, 6] | % Th1 ([1]; 10 mg/kg) [%] | % Th2 ([1]; 10 mg/kg) [%] | increase in the % Th2 [2, 7] | increase in the Th2/Th1 ratio [2, 7]
CC(C)=CCNc1ccc(-c2cc(C)c(-c3ccc(OCC=C(C)C)nc3)cc2C)c(F)c1 [Compound I-6] | 1.03 ± 0.10 | 0.03 ± 0.02 | no effect | significantly inhibited | significantly inhibited | 0.70 ± 0.02 | 1.41 ± 0.10 | 2.03 ± 0.20 | 0.54 ± 0.05 | 0.15 ± 0.01 | 0.29 ± 0.02 | 0.66 ± 0.02 | 0.03 ± 0.03 | 0.04 ± 0.05 | – | – | – | – | – | –
CC(C)=CCNc1ccc(-c2cc(C)c(-c3cnc(OCC=C(C)C)nc3)cc2C)c(F)c1 [Compound I-55] | – | – | – | – | – | – | – | – | – | – | – | 0.53 ± 0.05 | 0.05 ± 0.02 | 0.09 ± 0.03 | significantly inhibited | significantly inhibited | – | – | – | –
COc1c(C)c(-c2ccc(NCC=C(C)C)cc2)c(C)c(C)c1-c1ccc(OCC=C(C)C)c(F)c1 [Compound I-80] | 0.93 ± 0.11 | 0.02 ± 0.04 | no effect | – | – | – | – | – | – | – | – | 0.29 ± 0.03 | 0.07 ± 0.03 | 0.27 ± 0.12 | significantly inhibited | significantly inhibited | – | – | – | –
COc1c(C)c(-c2ccc(OCC=C(C)C)c(F)c2)c(C)c(C)c1-c1ccc(NCC=C(C)C)cc1 [Compound I-89] | – | – | no effect | – | – | – | – | – | 0.23 ± 0.02 | −0.04 ± 0.00 | −0.19 ± 0.01 | – | – | – | – | – | 0.70 ± 0.20 | 0.02 ± 0.06 | significantly inhibited | significantly inhibited
COc1c(C)c(-c2ccc(NCC=C(C)C)cc2)c(C)c(C)c1-c1ccc(OCC(F)(F)F)nc1 [Compound I-90] | – | – | – | – | – | – | – | – | – | – | – | 0.40 ± 0.02 | 0.08 ± 0.03 | 0.22 ± 0.09 | significantly inhibited | significantly inhibited | – | – | – | –
COc1c(C)c(-c2ccc(NCC=C(C)C)c(F)c2)c(OC)c(C)c1-c1ccc(NCC=C(C)C)nc1 [Compound I-102] | 0.82 ± 0.16 | 0.07 ± 0.04 | no effect | – | – | – | – | – | – | – | – | 0.34 ± 0.09 | −0.01 ± 0.01 | −0.05 ± 0.06 | significantly inhibited | significantly inhibited | – | – | – | –
CC(C)=CCNc1ccc(-c2cc(C)c(-c3cnc(OCC=C(C)C)nc3)cc2C)c(C)c1 [Compound I-132] | – | – | – | – | – | – | – | – | – | – | – | 0.46 ± 0.07 | 0.05 ± 0.02 | 0.12 ± 0.04 | significantly inhibited | significantly inhibited | – | – | – | –
COc1c(C)c(-c2ccc(OCC(C)C)c(O)c2)c(C)c(C)c1-c1ccc(NCC=C(C)C)cc1 [Compound I-133] | – | – | – | – | – | – | – | – | – | – | – | 0.45 ± 0.03 | 0.20 ± 0.05 | 0.45 ± 0.09 | significantly inhibited | significantly inhibited | – | – | – | –
